Values quoted from earlier work in patent US8202840B2, “Enhanced ocular neuroprotection and neurostimulation” (Minu L.L.C., priority 2005, dated 2012).

Assays:
[1] = test system: Ganglion cells in the retina (RGC); conditions: systemically administered
[2] = biological target: immunophilin FK 506-binding protein (FKBP) (Homo sapiens, UniProt P62942); conditions: in vitro
[3] = administered systemically

Chain of immunophilin FK 506-binding protein (FKBP) (P62942 whole entry): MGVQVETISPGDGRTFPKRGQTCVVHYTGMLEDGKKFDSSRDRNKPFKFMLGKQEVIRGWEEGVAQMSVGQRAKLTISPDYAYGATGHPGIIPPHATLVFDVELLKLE

binding to and inhibition of FKBP activity [2]: binds to and inhibits the activity | solubility in chloroform (chloroform): very soluble | solubility in ethanol (ethanol): freely soluble | solubility in methanol (methanol): very soluble | solubility in water (water): practically insoluble
SMILES: C=CC[C@@H]1/C=C(\C)C[C@H](C)C[C@H](OC)[C@H]2O[C@@](O)(C(=O)C(=O)N3CCCC[C@H]3C(=O)O[C@H](/C(C)=C/[C@@H]3CC[C@@H](O)[C@H](OC)C3)[C@H](C)[C@@H](O)CC1=O)[C@H](C)C[C@@H]2OC [tacrolimus, Tacrolimus]
neuroprotection on RGC [1]: conferred neuroprotection on RGC | renal and hepatic toxicity [3]: significant renal and hepatic toxicity
